The source of these data is patent US20260132132A1, “3A,4,5,6-TETRAHYDRO-1 H-PYRAZOLO[3,4-C]PYRIDIN-7(7AH)-ONE DERIVATIVES AS FACTOR XIIA INHIBITORS” (KALVISTA PHARMACEUTICALS LIMITED, priority 2022, published 2026).

pIC50: −log10 of the molar value.

In one experiment the target is FXa (Homo sapiens, UniProt P00742). The experiment is described as follows: Related protease inhibition: FXa, fluorogenic substrate. In kind it is biochemical. The note with it: fluorogenic substrate at Km, 25° C.; H1-H3 = % activity at 40 μM. On the procedure: Human serine protease enzyme Plasma Kallikrein, KLK1, FXa, Plasmin, Thrombin and Trypsin were assayed for enzymatic activity using an appropriate fluorogenic substrate at Km concentration, FXIa at fixed substrate concentration of 100 μM and various concentrations of the test compound.
Chain of FXa (P00742 235-488 limits assumed): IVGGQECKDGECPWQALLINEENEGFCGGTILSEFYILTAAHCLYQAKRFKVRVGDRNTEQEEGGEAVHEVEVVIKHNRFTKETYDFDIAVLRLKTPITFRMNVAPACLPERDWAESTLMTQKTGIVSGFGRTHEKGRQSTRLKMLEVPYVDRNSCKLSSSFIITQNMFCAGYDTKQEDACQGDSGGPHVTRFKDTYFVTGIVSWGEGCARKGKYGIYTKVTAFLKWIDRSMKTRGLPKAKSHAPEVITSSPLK
Chain of FXa (P00742 41-179 partner limits assumed): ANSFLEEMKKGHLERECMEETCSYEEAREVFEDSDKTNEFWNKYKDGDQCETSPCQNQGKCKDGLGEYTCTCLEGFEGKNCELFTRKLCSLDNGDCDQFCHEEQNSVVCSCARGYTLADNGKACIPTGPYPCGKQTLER

The target of experiment [1] is T1, Human Factor XIIa (hFXIIa) (Homo sapiens, UniProt P00748).
T1 construct: purchased Enzyme Research Laboratories
T1 sequence (P00748 373-615 limits assumed): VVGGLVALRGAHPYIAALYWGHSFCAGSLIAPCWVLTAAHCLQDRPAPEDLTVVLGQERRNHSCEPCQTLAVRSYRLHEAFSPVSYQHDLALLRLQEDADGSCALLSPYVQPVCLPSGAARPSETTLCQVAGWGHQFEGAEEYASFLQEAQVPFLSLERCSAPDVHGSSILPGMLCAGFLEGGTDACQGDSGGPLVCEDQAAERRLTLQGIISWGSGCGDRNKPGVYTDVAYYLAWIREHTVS
T1 sequence (P00748 20-372 partner limits assumed): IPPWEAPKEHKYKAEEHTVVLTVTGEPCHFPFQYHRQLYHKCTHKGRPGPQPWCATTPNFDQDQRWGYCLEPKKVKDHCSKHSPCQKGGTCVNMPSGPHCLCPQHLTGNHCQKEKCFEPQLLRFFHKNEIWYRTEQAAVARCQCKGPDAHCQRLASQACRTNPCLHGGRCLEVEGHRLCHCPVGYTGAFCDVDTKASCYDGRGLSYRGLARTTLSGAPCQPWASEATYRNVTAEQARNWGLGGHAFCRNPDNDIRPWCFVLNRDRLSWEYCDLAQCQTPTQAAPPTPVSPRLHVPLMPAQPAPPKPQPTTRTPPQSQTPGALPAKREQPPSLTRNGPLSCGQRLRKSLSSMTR
The experiment is described as follows: Determination of Human Factor XIIa (hFXIIa) inhibition, fluorogenic substrate IC50 assay. Particulars: fluorogenic substrate H-DPro-Phe-Arg-AFC at Km, 25° C., read-out: Human FXIIa IC50. In kind it is biochemical. On the procedure: Determination of Human Factor XIIa (hFXIIa) inhibition
The Km for the cleavage of the substrate by hFXIIa was determined by standard transformation of the Michaelis-Menten equation, with subsequent inhibition assays performed at substrate Km concentration.

Take `O=C(NCc1cccnc1)c1nn(-c2cccc(Cl)c2)c2c1CCN(c1ccc3c(c1)CN(CCO)CC3)C2=O` [Example 1078, 1-(3-chlorophenyl)-6-(2-(2-hydroxyethyl)-1,2,3,4-tetrahydroisoquinolin-7-yl)-7-oxo-N-(pyridin-3-ylmethyl)-4,5,6,7-tetrahydro-1H-pyrazolo[3,4-c]pyridine-3-carboxamide]: the figures for the pIC50 (on FXa; in experiment [1]) were 5.00 to 5.52 and 7.00 to 8.00, respectively.

With `CCN1CCc2cc(F)c(N3CCc4c(C(=O)NCC5CC5)nn(-c5cccc(Cl)c5)c4C3=O)cc2C1` [Example 1079, 1-(3-chlorophenyl)-N-(cyclopropylmethyl)-6-(2-ethyl-6-fluoro-1,2,3,4-tetrahydroisoquinolin-7-yl)-7-oxo-4,5,6,7-tetrahydro-1H-pyrazolo[3,4-c]pyridine-3-carboxamide], the values for the pIC50 (on FXa; in experiment [1]) were 4.40 to 5.00 and 7.00 to 8.00, respectively.

Regarding `CCN1CCc2ccc(N3CCc4c(C(=O)NC5CCOCC5)nn(-c5cccc(Cl)c5)c4C3=O)cc2C1` [Example 1085, 1-(3-chlorophenyl)-6-(2-ethyl-1,2,3,4-tetrahydroisoquinolin-7-yl)-7-oxo-N-(tetrahydro-2H-pyran-4-yl)-4,5,6,7-tetrahydro-1H-pyrazolo[3,4-c]pyridine-3-carboxamide], the pIC50 (as a rule, the IC50 on a negative log10 scale, so that one unit is a factor of ten) on FXa was less than 4.40; in experiment [1], 6.52 to 7.00.

For `O=C(NCc1ccn[nH]1)c1nn(-c2cccc(Cl)c2)c2c1CCN(c1ccc3c(c1)CN(CCO)CC3)C2=O` [Example 1089, N-((1H-pyrazol-5-yl)methyl)-1-(3-chlorophenyl)-6-(2-(2-hydroxyethyl)-1,2,3,4-tetrahydroisoquinolin-7-yl)-7-oxo-4,5,6,7-tetrahydro-1H-pyrazolo[3,4-c]pyridine-3-carboxamide], the pIC50 on FXa was 4.40 to 5.00; in experiment [1] it was 7.00 to 8.00.

Take `CCN1CCc2ccc(N3CCc4c(C(=O)NC5COCC5(C)C)nn(-c5cccc(Cl)c5)c4C3=O)cc2C1` (centres unmarked) [Example 1092, 1-(3-chlorophenyl)-N-(4,4-dimethyltetrahydrofuran-3-yl)-6-(2-ethyl-1,2,3,4-tetrahydroisoquinolin-7-yl)-7-oxo-4,5,6,7-tetrahydro-1H-pyrazolo[3,4-c]pyridine-3-carboxamide]: the figures for the pIC50 (against FXa; in experiment [1]) were less than 4.40 and 6.52 to 7.00, respectively.

As for `CCN1Cc2cc(N3CCc4c(C(=O)NCC5CC5)nn(-c5cccc(Cl)c5)c4C3=O)ccc2C2(CC2)C1` [Example 1099, 1-(3-chlorophenyl)-N-(cyclopropylmethyl)-6-(2′-ethyl-2′,3′-dihydro-1′H-spiro[cyclopropane-1,4′-isoquinolin]-7′-yl)-7-oxo-4,5,6,7-tetrahydro-1H-pyrazolo[3,4-c]pyridine-3-carboxamide], the pIC50 against FXa was 5.00 to 5.52; in experiment [1] it was 7.00 to 8.00.

For `O=C(NCc1ccco1)c1nn(-c2cccc(Cl)c2)c2c1CCN(c1ccc3c(c1)CN(CCO)CC3)C2=O` [Example 1109, 1-(3-chlorophenyl)-N-(furan-2-ylmethyl)-6-(2-(2-hydroxyethyl)-1,2,3,4-tetrahydroisoquinolin-7-yl)-7-oxo-4,5,6,7-tetrahydro-1H-pyrazolo[3,4-c]pyridine-3-carboxamide], the figures for the pIC50 (at FXa; in experiment [1]) were less than 4.40 and 7.00 to 8.00, respectively.

For `Cc1ccncc1CNC(=O)c1nn(-c2cccc(Cl)c2)c2c1CCN(c1ccc3c(c1)CN(CCO)CC3)C2=O` [Example 1110, 1-(3-chlorophenyl)-6-(2-(2-hydroxyethyl)-1,2,3,4-tetrahydroisoquinolin-7-yl)-N-((4-methylpyridin-3-yl)methyl)-7-oxo-4,5,6,7-tetrahydro-1H-pyrazolo[3,4-c]pyridine-3-carboxamide], the values for the pIC50 (against FXa; in experiment [1]) were 4.40 to 5.00 and 7.00 to 8.00, respectively.

Take `Cc1ncccc1CNC(=O)c1nn(-c2cccc(Cl)c2)c2c1CCN(c1ccc3c(c1)CN(CCO)CC3)C2=O` [Example 1111, 1-(3-chlorophenyl)-6-(2-(2-hydroxyethyl)-1,2,3,4-tetrahydroisoquinolin-7-yl)-N-((2-methylpyridin-3-yl)methyl)-7-oxo-4,5,6,7-tetrahydro-1H-pyrazolo[3,4-c]pyridine-3-carboxamide]: the pIC50 was 4.40 to 5.00 at FXa and 7.00 to 8.00 in experiment [1].

For the compound `CC1(C)OCCC1NC(=O)c1nn(-c2cccc(Cl)c2)c2c1CCN(c1ccc3c(c1)CN(CCO)CC3)C2=O` (centres unmarked) [Example 1112, 1-(3-chlorophenyl)-N-(2,2-dimethyltetrahydrofuran-3-yl)-6-(2-(2-hydroxyethyl)-1,2,3,4-tetrahydroisoquinolin-7-yl)-7-oxo-4,5,6,7-tetrahydro-1H-pyrazolo[3,4-c]pyridine-3-carboxamide], the pIC50 is less than 4.40 at FXa and 6.52 to 7.00 in experiment [1].

In the case of `O=C(NCC1CC1)c1nn(-c2cccc(Cl)c2)c2c1CCN(c1ccc3c(c1)CN(C(=O)CO)CC3)C2=O` [Example 1114, 1-(3-chlorophenyl)-N-(cyclopropylmethyl)-6-(2-(2-hydroxyacetyl)-1,2,3,4-tetrahydroisoquinolin-7-yl)-7-oxo-4,5,6,7-tetrahydro-1H-pyrazolo[3,4-c]pyridine-3-carboxamide], the values for the pIC50 (on FXa; in experiment [1]) were less than 4.40 and 5.00 to 5.52, respectively.

Take `CCN1CCc2cnc(N3CCc4c(C(=O)NCC5CC5)nn(-c5cccc(Cl)c5)c4C3=O)cc2C1` [Example 1117, 1-(3-Chlorophenyl)-N-(cyclopropylmethyl)-6-(6-ethyl-5,6,7,8-tetrahydro-2,6-naphthyridin-3-yl)-7-oxo-4,5,6,7-tetrahydro-1H-pyrazolo[3,4-c]pyridine-3-carboxamide]: the pIC50 against FXa is 4.40 to 5.00; in experiment [1], 6.52 to 7.00.

For the compound `O=C(NCC1CC1)c1nn(-c2cccc(Cl)c2)c2c1CCN(c1cc3c(cn1)CCN(CCO)C3)C2=O` [Example 1118, 1-(3-chlorophenyl)-N-(cyclopropylmethyl)-6-(6-(2-hydroxyethyl)-5,6,7,8-tetrahydro-2,6-naphthyridin-3-yl)-7-oxo-4,5,6,7-tetrahydro-1H-pyrazolo[3,4-c]pyridine-3-carboxamide], the pIC50 on FXa is less than 4.40; in experiment [1], 6.52 to 7.00.

As to `CCN1CCc2c(F)cc(N3CCc4c(C(=O)NCC5CC5)nn(-c5cccc(Cl)c5)c4C3=O)cc2C1` [Example 1121, 1-(3-chlorophenyl)-N-(cyclopropylmethyl)-6-(2-ethyl-5-fluoro-1,2,3,4-tetrahydroisoquinolin-7-yl)-7-oxo-4,5,6,7-tetrahydro-1H-pyrazolo[3,4-c]pyridine-3-carboxamide], the pIC50 against FXa was less than 4.40; in experiment [1] it was 6.52 to 7.00.

With `O=C(NCC1CC1)c1nn(-c2cccc(Cl)c2)c2c1CCN(c1cc(F)c3c(c1)CN(CCO)CC3)C2=O` [Example 1122, 1-(3-Chlorophenyl)-N-(cyclopropylmethyl)-6-(5-fluoro-2-(2-hydroxyethyl)-1,2,3,4-tetrahydroisoquinolin-7-yl)-7-oxo-4,5,6,7-tetrahydro-1H-pyrazolo[3,4-c]pyridine-3-carboxamide], the figures for the pIC50 (at FXa; in experiment [1]) were less than 4.40 and 6.52 to 7.00, respectively.

For `O=C(NCC1CC1)c1nn(-c2cccc(Cl)c2)c2c1CCN(c1cc3c(cc1F)CCN(CCO)C3)C2=O` [Example 1123, 1-(3-chlorophenyl)-N-(cyclopropylmethyl)-6-(6-fluoro-2-(2-hydroxyethyl)-1,2,3,4-tetrahydroisoquinolin-7-yl)-7-oxo-4,5,6,7-tetrahydro-1H-pyrazolo[3,4-c]pyridine-3-carboxamide], the negative-log IC50 (pIC50) against FXa is less than 4.40; in experiment [1], 6.52 to 7.00.

Turning to `Cc1cc(CNC(=O)c2nn(-c3cccc(Cl)c3)c3c2CCN(c2cc4c(cc2F)CCN(CCO)C4)C3=O)[nH]n1` [Example 1125, 1-(3-chlorophenyl)-6-(6-fluoro-2-(2-hydroxyethyl)-1,2,3,4-tetrahydroisoquinolin-7-yl)-N-((3-methyl-1H-pyrazol-5-yl)methyl)-7-oxo-4,5,6,7-tetrahydro-1H-pyrazolo[3,4-c]pyridine-3-carboxamide], the negative logarithm of the IC50 (pIC50) was 4.40 to 5.00 on FXa and 7.00 to 8.00 in experiment [1].

As for `Cc1cncc(CNC(=O)c2nn(-c3cccc(Cl)c3)c3c2CCN(c2ccc4c(c2)CN(CCO)CC4)C3=O)c1` [Example 1126, 1-(3-chlorophenyl)-6-(2-(2-hydroxyethyl)-1,2,3,4-tetrahydroisoquinolin-7-yl)-N-((5-methylpyridin-3-yl)methyl)-7-oxo-4,5,6,7-tetrahydro-1H-pyrazolo[3,4-c]pyridine-3-carboxamide], the pIC50 on FXa was 4.40 to 5.00; in experiment [1], 7.00 to 8.00.

As for `O=C(NCc1cc(C2CC2)n[nH]1)c1nn(-c2cccc(Cl)c2)c2c1CCN(c1ccc3c(c1)CN(CCO)CC3)C2=O` [Example 1127, 1-(3-chlorophenyl)-N-((3-cyclopropyl-1H-pyrazol-5-yl)methyl)-6-(2-(2-hydroxyethyl)-1,2,3,4-tetrahydroisoquinolin-7-yl)-7-oxo-4,5,6,7-tetrahydro-1H-pyrazolo[3,4-c]pyridine-3-carboxamide], the values for the pIC50 (on FXa; in experiment [1]) were 4.40 to 5.00 and 7.00 to 8.00, respectively.
